Results on 1 molecule are retold here after patent publication EP3882250B1, “TETRAHYDROPYRANYL AMINO-PYRROLOPYRIMIDINONE FOR USE IN TREATING BTK-MEDIATED DISORDERS” (ArQule, Inc., priority 2015, dated 2017).

Assay [1] has as its system TMD-8 cells. Nature of the assay: Anti-proliferation Assay (MTS), TMD-8 cells. It counts as cell-based. Particulars: Homo sapiens, TMD8, treated for 72 hours, MTS cell survival. The procedure: (§1) Cell survival is determined by a MTS assay. Briefly, cells (i.e., TMD-8 cells or Rec-1 cells) are plated in a 96-well plate, cultured in complete growth medium, and then treated with various drugs and drug combinations. MTS/PMS is added and incubated, followed by assessment of cell viability using the microplate reader. Data is normalized to untreated controls and analyzed with Microsoft Excel.
(§2) Cell survival was determined by the MTS assay. Briefly, cells (i.e., TMD-8 cells or Rec-1 cells) were plated in a 96-well plate at 2,000-10,000 cells per well, cultured for 24 hours in complete growth medium, and then treated with various drugs and drug combinations for 72 hours. MTS/PMS was added and incubated for 4 hour, followed by assessment of cell viability using the microplate reader (absorbance at 490 nm). Data were normalized to untreated controls and analyzed with Microsoft Excel.

For assay [2], the system named is Rec-1 cells. Briefly: Anti-proliferation Assay (MTS), Rec-1 cells. The settings on record: Homo sapiens, Rec1, treated for 72 hours, MTS cell survival. Format: cell-based. The procedure:
as §1, §2

As for `O=C(c1ccc(Oc2ccccc2)cc1Cl)c1c[nH]c2ncnc(N[C@@H]3CC[C@@H](CO)OC3)c12` [Compound (I), (2-chloro-4-phenoxyphenyl)(4-(((3R,6S)-6-(hydroxymethyl)tetrahydro-2H-pyran-3-yl)amino)-7H-pyrrolo[2,3-d]pyrimidin-5-yl)methanone], the IC50 in assay [1] turned out to be 130 ± 60 nM; in assay [2], 180 ± 70 nM.
